Data taken from patent US12240846B2 (Enliven Inc., priority 2020, dated 2025).
Values joined by “and” are separate entries in the source; they are usually repeats but may differ in a detail not shown here. Identical values can stand only once.

How the values were obtained:
[1] = molecular target: T1, ABL1 (Homo sapiens, UniProt P00519); assay: Luminescence-based ABL kinase assay (300 μM ATP), ADP-Glo; assay type: biochemical
T1 construct: purchased Carna Biosciences
Excerpt: Compounds were serially diluted in DMSO. […] Luminescence signal positively correlates with kinase activity.

[2] = molecular target: ABL1 (T315I) (Homo sapiens, UniProt P00519, T315I); assay: as above; assay type: biochemical

| IC50 [1] | IC50 [2] | Structure (SMILES) |
| --- | --- | --- |
| 324 nM | 212 nM | COc1ccccc1-c1cc2cc(NC(=O)[C@H]3C[C@H]3CN3CCOCC3)ncc2n1C (relative stereo) [Compound 41, cis-N-(2-(2-methoxyphenyl)-1-methyl-1H-pyrrolo[2,3-c]pyridin-5-yl)-2-(morpholinomethyl)cyclopropane-1-carboxamide] |
| 60.2 nM | 203 nM | CNc1ncnc(OC)c1-c1cc2cc(NC(=O)[C@@H]3C[C@@H]3F)ncc2n1C [Compound 109, (1S,2S)-2-fluoro-N-(2-(4-methoxy-6-(methylamino)pyrimidin-5-yl)-1-methyl-1H-pyrrolo[2,3-c]pyridin-5-yl)cyclopropane-1-carboxamide] |
| 78.3 nM | 78.3 nM | COc1ncc(F)c(OC)c1-c1cc2cc(NC(=O)[C@H]3C[C@@H]3CN(C)C)ncc2n1C (single isomer, unassigned) [Compound 131] |
| 184 nM | 545 nM | Cc1cc2[nH]ncc2cc1-c1cc2cc(NC(=O)C3CC3)ncc2n1C [Compound 16, N-(1-methyl-2-(6-methyl-1H-indazol-5-yl)-1H-pyrrolo[2,3-c]pyridin-5-yl)cyclopropanecarboxamide] |
| 388 nM | 399 nM | COc1ncnc(OC)c1-c1[nH]c2cc(NC(=O)[C@@H]3C[C@@H]3F)ncc2c1C [Compound 91, (1S,2S)-N-(2-(4,6-dimethoxypyrimidin-5-yl)-3-methyl-1H-pyrrolo[3,2-c]pyridin-6-yl)-2-fluorocyclopropane-1-carboxamide] |
| 95.9 nM | 148 nM | CCNC(=O)Nc1cc2cc(-c3ccccc3OC)n(C)c2cn1 [Compound 77, 3-ethyl-1-[2-(2-methoxyphenyl)-1-methylpyrrolo[2,3-c]pyridin-5-yl]urea] |
| 109 nM | 431 nM | COc1ncncc1-c1cc2cc(NC(=O)[C@@H]3C[C@@H]3F)ncc2n1C [Compound 68, (1S,2S)-2-fluoro-N-(2-(4-methoxypyrimidin-5-yl)-1-methyl-1H-pyrrolo[2,3-c]pyridin-5-yl)cyclopropane-1-carboxamide] |
| 1430 nM and 1350 nM | 2670 nM and 4510 nM | CCn1c(-c2cccnc2OC)cc2cc(NC(=O)[C@@H]3C[C@@H]3F)ncc21 [Compound 63, (1S,2S)-N-(1-ethyl-2-(2-methoxypyridin-3-yl)-1H-pyrrolo[2,3-c]pyridin-5-yl)-2-fluorocyclopropane-1-carboxamide] |
| 817 nM | 599 nM | Cn1c(-c2ccccc2OCCO)cc2cc(NC(=O)C3CC3)ncc21 [Compound 4, N-[2-[2-(2-hydroxyethoxy)phenyl]-1-methylpyrrolo[2,3-c]pyridin-5-yl]cyclopropanecarboxamide] |
| 48.6 nM | 85.9 nM | COc1ccnc(OC)c1-c1cc2cc(NC(=O)[C@@H]3C[C@H]3CN3CCNCC3)ncc2n1C (single isomer, unassigned) [Compound 139] |
| 103 nM | 101 nM | Cc1c(-c2cc3cc(NC(=O)C4CC4)ncc3n2C)ccc2[nH]ccc12 [Compound 15, N-[1-methyl-2-(4-methyl-1H-indol-5-yl)pyrrolo[2,3-c]pyridin-5-yl]cyclopropanecarboxamide] |
| 567 nM | 300 nM | Cc1c(-c2cc3cc(NC(=O)C4CC4)ncc3n2C)ccc2c1CCN2 [Compound 13, N-[1-methyl-2-(4-methyl-2,3-dihydro-1H-indol-5-yl)pyrrolo[2,3-c]pyridin-5-yl]cyclopropanecarboxamide] |
| 743 nM | 336 nM | Cc1c(-c2cc3cc(NC(=O)C4CC4)ncc3n2C)ccc2[nH]ncc12 [Compound 18, N-[1-methyl-2-(4-methyl-1H-indazol-5-yl)pyrrolo[2,3-c]pyridin-5-yl]cyclopropanecarboxamide] |
| 44.5 nM | 164 nM | CCN1CCN(CCNC(=O)Nc2cc3cc(-c4c(OC)ncc(F)c4OC)n(C)c3cn2)CC1 [Compound 84, 1-[2-(4-ethylpiperazin-1-yl)ethyl]-3-[2-(5-fluoro-2,4-dimethoxypyridin-3-yl)-1-methylpyrrolo[2,3-c]pyridin-5-yl]urea] |
| 294 nM | 681 nM | COc1ncccc1-c1cc2cnc(NC(=O)C3CC3)cc2n1C [Compound 50, N-[2-(2-methoxypyridin-3-yl)-1-methylpyrrolo[3,2-c]pyridin-6-yl]cyclopropanecarboxamide] |
| > 10000 nM | 999 nM | Cc1cccnc1-c1cc2cc(NC(=O)C3CC3)ncc2n1C [Compound 20, N-[1-methyl-2-(3-methylpyridin-2-yl)pyrrolo[2,3-c]pyridin-5-yl]cyclopropanecarboxamide] |
| 59.5 nM | 183 nM | [2H]C([2H])([2H])Oc1ncccc1-c1cc2cc(NC(=O)[C@H]3C[C@H]3F)ncc2n1C [Compound 33, (1R,2R)-2-fluoro-N-(2-(2-(methoxy-d3)pyridin-3-yl)-1-methyl-1H-pyrrolo[2,3-c]pyridin-5-yl)cyclopropane-1-carboxamide] |
| 35.4 nM | 551 nM | CCOc1ncccc1-c1cc2cc(NC(=O)[C@H]3C[C@H]3F)ncc2n1C [Compound 37, (1R,2R)-N-[2-(2-ethoxypyridin-3-yl)-1-methylpyrrolo[2,3-c]pyridin-5-yl]-2-fluorocyclopropane-1-carboxamide] |
| 10.6 nM | 26 nM | COc1ccnc(OC)c1-c1cc2cc(NC(=O)[C@@H]3C[C@H]3CN3CC4CC(C3)N4)ncc2n1C (single isomer, unassigned) [Example 135, Enantiomer 2] |
| 105 nM | 716 nM | COc1cc2nccn2cc1-c1cc2cc(NC(=O)[C@@H]3C[C@@H]3F)ncc2n1C [Compound 71, (1S,2S)-2-fluoro-N-(2-(7-methoxyimidazo[1,2-a]pyridin-6-yl)-1-methyl-1H-pyrrolo[2,3-c]pyridin-5-yl)cyclopropane-1-carboxamide] |
| 280 nM | 357 nM | COc1ncnc(NC2CC2)c1-c1cc2cc(NC(=O)[C@@H]3C[C@@H]3F)ncc2n1C [Compound 110, (1S,2S)-N-(2-(4-(cyclopropylamino)-6-methoxypyrimidin-5-yl)-1-methyl-1H-pyrrolo[2,3-c]pyridin-5-yl)-2-fluorocyclopropane-1-carboxamide] |
| 40.4 nM | 207 nM | COc1nc(C(F)F)nc(OC)c1-c1cc2cc(NC(=O)[C@@H]3C[C@@H]3F)ncc2n1C [Compound 96, (1S,2S)-N-(2-(2-(difluoromethyl)-4,6-dimethoxypyrimidin-5-yl)-1-methyl-1H-pyrrolo[2,3-c]pyridin-5-yl)-2-fluorocyclopropane-1-carboxamide] |
| 220 nM | 17.9 nM | COc1cccc(F)c1-c1c(C)c2cc(NC(=O)[C@H]3C[C@H]3F)ncc2n1C [Compound 45, (1R,2R)-2-fluoro-N-[2-(2-fluoro-6-methoxyphenyl)-1,3-dimethylpyrrolo[2,3-c]pyridin-5-yl]cyclopropane-1-carboxamide] |
| 59.7 nM | 160 nM | Cc1cc2[nH]cnc2cc1-c1cc2cc(NC(=O)C3CC3)ncc2n1C [Compound 17, N-[1-methyl-2-(6-methyl-1H-1,3-benzodiazol-5-yl)pyrrolo[2,3-c]pyridin-5-yl]cyclopropanecarboxamide] |
